“And” between values parts separate entries of the source, which are not always exact repeats. Equal entries are not always repeated.
Test system: B16-BL6 murine melanoma cells
Experiment: Tumorigenicity and "spontaneous" metastasis assay (s.c. footpad injection of cancer cells)
Assay type: in vivo, female C57BL/6 mice
Conditions: for Survival (days) (mean ± ES) / Lung metastases Frequency (%) / Lung metastases No. (mean ± ES) / Primary tumors Frequency (%) / Primary tumors Weight g (mean ± ES) / Local recurrencies Frequency (%) / Local recurrencies Weight g (mean ± ES): DOX+NAC same doses; for reduction in the number of lung metastases with respect to controls / reduction in the weight of primary tumors with respect to controls / weight of primary tumors 4 weeks after injection of cancer cells (effect in words) / reduction in the weight of local recurrencies with respect to controls: combined same doses
Protocol: DOX was used in the form of commercial injectable product, containing 10 mg of drug per vial (Adriblastina®, Farmitalia - Carlo Erba, Milano, Italia), to be dissolved in distilled water when injected. In the experiments wherein the oral administration was provided, NAC was used in the form of commercial product containing 200 mg of NAC per dosage (Fluimucil®, Zambon Italia, Vicenza), directly dissolved in the drinking water of mice. In the experiments wherein the parenteral (i.p. or i.v.) administration of NAC was foreseen, a 98% pure laboratory reagent (Sigma Chemical Co., St. Louis, MO, U.S.A.) was used, dissolved in a phosphate buffer (PBS), pH 7.4, and furtherly brought to neutrality with NaOH 0.1 N ("spontaneous" metastasis assays) or in NaCl 0.15 M, taking the solution to pH 7.0 (experimental metastasis assays).
A total of 385 adult mice was used (Charles River, Calco, Como, Italia) of which 196 female nude (CD-1)BR mice, aged 7 weeks, average weight of 25 g and 189 female C57BL/6 mice aged 6-8 weeks, average weight of 20 g, used in the experimental metastasis assays and in those of "spontaneous" metastases respectively. The (CD-1)BR mice were housed in sterile cages with filtering cover, in a number of 3 animals per cage, at a room temperature of 26-28°C, with a relative humidity of 55%, a ventilation accounting for 12-15 air/h renewals and a 12 hours day/night cycle; the C57BL/6 mice were stabulated in a number of 5 animals per cage, at a temperature of 25-27°C, with a relative humidity of 50% and a 12 hours day/night cycle. The (CD-1)BR mice received a special diet sterilized under vacuum (Mucedola S.r.L, Settimo Milanese, Milano, Italia) and sterilized drinking water; the C57BL/6 mice received a standard rodent diet (MIL Topi e Ratti, Morini, S. Polo d'Enza, Reggio Emilia, Italia) and drinking water ad libitum throughout the duration of the experiments. Within the experiments wherein the sacrifice of mice was foreseen at a scheduled time, killing was carried out by means of ethyl ether anaesthesia and subsequent cervical dislocation. The stabulation and all the animal treatments were carried out in accordance with the national and Community guidelines (D.L. 27.01.1992 N. 116; 86/609/EEC Directive).
In this kind of experiment, B16-BL6 murine melanoma cells were injected s.c. in the footpad of the right hind leg (5 x 10^5 cells/mouse in experiment #5, 2 x 10^5 cells/mouse in experiments #6, #7 and #8).
With such a technique a primary tumor is formed in the side of injection, from which starts the spread of metastases to the lungs.
Also in these experiments 4 groups were taken into consideration. In all the experiments NAC was administered with drinking water, at a dose of 2 g/kg body weight, starting 48-72 hours before injection of cancer cells and continuing until the end of each experiment. In experiment #5 DOX was administered by i.p. route (2 mg/kg body weight), 24 hours after injection of cancer cells. In experiments #6, #7 and #8 DOX was instead administered by i.v. route (10 mg/kg body weight), 24 hours (#6 and #7) or 7 days (#8) after injection of cancer cells.
In experiments #5, #7 and #8 mice were maintained until spontaneous death, so as to have indications also about the effect of treatment on survival. Both the primary tumors (frequency and weight) and the lung metastases (frequency and number) were therefore evaluated at the time of death.
In experiment #6 instead, 4 weeks after injection of the cancer cells, the leg carrying the primary tumor was removed. Further 4 weeks later the animals were killed, the tumors which gave recurrencies in the leg stump were excised and weighed, and the lung metastases were scored.
Four additional experiments, two of which partially overlapping (#7 and #8) were designed in order to evaluate the effects of NAC and DOX, individually or in combination, on the formation of local primary tumors and on the subsequent spread of lung metastases. […]

[1] = experiment #5, 5 x 10^5 cells/mouse, DOX 2 mg/kg i.p. +24h, NAC 2 g/kg p.o. -48 h/end
[2] = experiment #5, 5 x 10^5 cells/mouse, DOX 2 mg/kg i.p. +24h, NAC 2 g/kg p.o. -48 h/end, at spontaneous death
[3] = experiment #5, DOX 2 mg/kg i.p. +24 h, NAC 2 g/kg p.o.
[4] = experiment #6, 2 x 10^5 cells/mouse, DOX 10 mg/kg i.v. +24h, NAC 2 g/kg p.o. -48 h/56 days, leg removed 4 weeks after cells
[5] = experiment #6, 2 x 10^5 cells/mouse, DOX 10 mg/kg i.v. +24h, NAC 2 g/kg p.o. -48 h/56 days, sacrifice at 8 weeks
[6] = experiment #6, DOX 10 mg/kg +24 h, NAC 2 g/kg p.o.
[7] = experiment #6, DOX 10 mg/kg +24 h, NAC 2 g/kg p.o., 4 weeks
[8] = experiment #6, DOX 10 mg/kg +24 h, NAC 2 g/kg p.o., 8 weeks
[9] = experiment #7 (NAC group common to #7/8), DOX 10 mg/kg i.v. +24 h, NAC 2 g/kg p.o.
[10] = experiment #7, 2 x 10^5 cells/mouse, DOX 10 mg/kg i.v. +24h, NAC 2 g/kg p.o. -72 h/end
[11] = experiment #7, 2 x 10^5 cells/mouse, DOX 10 mg/kg i.v. +24h, NAC 2 g/kg p.o. -72 h/end, at spontaneous death
[12] = experiment #8, 2 x 10^5 cells/mouse, DOX 10 mg/kg i.v. +7 gg. (7 days), NAC 2 g/kg p.o. -72 h/end
[13] = experiment #8, 2 x 10^5 cells/mouse, DOX 10 mg/kg i.v. +7 gg. (7 days), NAC 2 g/kg p.o. -72 h/end, at spontaneous death

**Q.** With `COc1cccc2c1C(=O)c1c(O)c3c(c(O)c1C2=O)C[C@@](O)(C(=O)CO)C[C@@H]3O[C@H]1C[C@H](N)[C@H](O)[C@H](C)O1` [DOX, Doxorubicin] as the compound, how does the “Survival (days) (mean ± ES)” value [1] read?
**A.** Its value is 31.2 ± 4.7 days.

**Q.** And the “Lung metastases Frequency (%)” value [2]?
**A.** The value was 100.0%.

**Q.** What about the “Lung metastases No. (mean ± ES)” value [2] of the same compound?
**A.** Its value is 10.0 ± 6.4 No.

**Q.** What about the “Primary tumors Frequency (%)” value [2] of the same compound?
**A.** The value was 100.0%.

**Q.** What about the “Primary tumors Weight g (mean ± ES)” value [2] of the same compound?
**A.** The value was 3.0 ± 1.3 g.

**Q.** What about the “weight of primary tumors (effect in words)” value [3] of the same compound?
**A.** Its value is “did not decrease to a significant extent”.

**Q.** And the “reduction in the number of lung metastases with respect to controls” value (shortened to “reduction in the number”) [3]?
**A.** Its value is 6 fold and 6.0 fold.

**Q.** What about the “reduction in the weight of primary tumors with respect to controls” value [3] of the same compound?
**A.** Its value is 1.3 fold.

**Q.** And the “Primary tumors Frequency (%)” value [4]?
**A.** The value was 92.3%.

**Q.** And the “Primary tumors Weight g (mean ± ES)” value [4]?
**A.** Its value is 0.21 ± 0.05 g.

**Q.** And the “Local recurrencies Frequency (%)” value [5]?
**A.** Its value is 69.2%.

**Q.** What about the “Local recurrencies Weight g (mean ± ES)” value [5] of the same compound?
**A.** The value was 2.2 ± 0.7 g.

**Q.** What about the “Lung metastases Frequency (%)” value [5] of the same compound?
**A.** Its value is 75.0%.

**Q.** And the “Lung metastases No. (mean ± ES)” value [5]?
**A.** Its value is 32.6 ± 12.2 No.

**Q.** And the “weight of primary tumors 4 weeks after injection of cancer cells (effect in words)” value [6]?
**A.** Its value is “not affected”.

**Q.** And the “reduction in the weight of primary tumors with respect to controls” value [7]?
**A.** The value was 1.4 fold.

**Q.** And the “reduction in the number” value [8]?
**A.** Its value is 0.7 fold.

**Q.** And the “reduction in the weight of local recurrencies with respect to controls” value [8]?
**A.** The value was 1.1 fold.

**Q.** What about the “reduction in the number” value [9] of the same compound?
**A.** The value was 0.9 fold.

**Q.** What about the “Survival (days) (mean ± ES)” value [10] of the same compound?
**A.** Its value is 51.3 ± 1.9 days.

**Q.** What about the “Lung metastases Frequency (%)” value [11] of the same compound?
**A.** Its value is 76.9%.

**Q.** And the “Lung metastases No. (mean ± ES)” value [11]?
**A.** Its value is 23.0 ± 10.0 No.

**Q.** And the “Primary tumors Frequency (%)” value [11]?
**A.** The value was 100.0%.

**Q.** And the “Primary tumors Weight g (mean ± ES)” value [11]?
**A.** Its value is 2.2 ± 0.6 g.

**Q.** What about the “survival (effect in words)” value (experiment #7, DOX 10 mg/kg i.v. 24 hours after injection of cancer cells) of the same compound?
**A.** The value was “prolonged survival”.

**Q.** What about the “Survival (days) (mean ± ES)” value [12] of the same compound?
**A.** The value was 49.0 ± 2.8 days.

**Q.** And the “Lung metastases Frequency (%)” value [13]?
**A.** Its value is 63.6%.

**Q.** What about the “Lung metastases No. (mean ± ES)” value [13] of the same compound?
**A.** Its value is 12.6 ± 9.0 No.

**Q.** And the “Primary tumors Frequency (%)” value [13]?
**A.** The value was 100.0%.

**Q.** What about the “Primary tumors Weight g (mean ± ES)” value [13] of the same compound?
**A.** The value was 2.3 ± 0.6 g.

**Q.** What about the “survival curves and mean survival time (effect in words)” value (experiment #8, DOX 10 mg/kg i.v. 7 days after injection of cancer cells, NAC 2 g/kg p.o.) of the same compound?
**A.** Its value is “did not affect the survival curves nor the mean survival time”.

**Q.** Which “Survival (days) (mean ± ES)” value [1] does the source give for `CC(=O)N[C@@H](CS)C(=O)O` [NAC, N-acetyl-cysteine] here?
**A.** Its value is 32.2 ± 2.5 days.

**Q.** And the “Lung metastases Frequency (%)” value [2]?
**A.** The value was 83.3%.

**Q.** And the “Lung metastases No. (mean ± ES)” value [2]?
**A.** Its value is 8.3 ± 6.8 No.

**Q.** And the “Primary tumors Frequency (%)” value [2]?
**A.** The value was 100.0%.

**Q.** What about the “Primary tumors Weight g (mean ± ES)” value [2] of the same compound?
**A.** The value was 1.9 ± 0.4 g.

**Q.** And the “weight of primary tumors (effect in words)” value [3]?
**A.** The value was “more than halved”.

**Q.** And the “reduction in the number” value [3]?
**A.** Its value is 7.2 fold.

**Q.** What about the “reduction in the weight of primary tumors with respect to controls” value [3] of the same compound?
**A.** Its value is 2.1 fold.

**Q.** What about the “Primary tumors Frequency (%)” value [4] of the same compound?
**A.** The value was 93.3%.

**Q.** And the “Primary tumors Weight g (mean ± ES)” value [4]?
**A.** Its value is 0.28 ± 0.04 g.

**Q.** What about the “Local recurrencies Frequency (%)” value [5] of the same compound?
**A.** Its value is 53.3%.

**Q.** And the “Local recurrencies Weight g (mean ± ES)” value [5]?
**A.** The value was 2.8 ± 0.8 g.

**Q.** And the “Lung metastases Frequency (%)” value [5]?
**A.** The value was 45.5%.

**Q.** What about the “Lung metastases No. (mean ± ES)” value [5] of the same compound?
**A.** The value was 12.9 ± 7.8 No.

**Q.** And the “weight of primary tumors 4 weeks after injection of cancer cells (effect in words)” value [6]?
**A.** The value was “not affected”.

**Q.** What about the “reduction in the weight of primary tumors with respect to controls” value [7] of the same compound?
**A.** The value was 1.0 fold.

**Q.** What about the “reduction in the number” value [8] of the same compound?
**A.** The value was 1.6 fold.

**Q.** And the “reduction in the weight of local recurrencies with respect to controls” value [8]?
**A.** The value was 0.9 fold.

**Q.** What about the “reduction in the number” value [9] of the same compound?
**A.** Its value is 2.1 fold.

**Q.** What about the “Survival (days) (mean ± ES)” value [10] of the same compound?
**A.** Its value is 60.1 ± 3.7 days.

**Q.** What about the “Lung metastases Frequency (%)” value [11] of the same compound?
**A.** The value was 18.2%.

**Q.** What about the “Lung metastases No. (mean ± ES)” value [11] of the same compound?
**A.** The value was 9.5 ± 8.3 No.

**Q.** What about the “Primary tumors Frequency (%)” value [11] of the same compound?
**A.** The value was 100.0%.

**Q.** And the “Primary tumors Weight g (mean ± ES)” value [11]?
**A.** The value was 1.9 ± 0.6 g.

**Q.** And the “Survival (days) (mean ± ES)” value [12]?
**A.** Its value is 60.1 ± 3.7 days.

**Q.** What about the “Lung metastases Frequency (%)” value [13] of the same compound?
**A.** Its value is 18.2%.

**Q.** And the “Lung metastases No. (mean ± ES)” value [13]?
**A.** The value was 9.5 ± 8.3 No.

**Q.** And the “Primary tumors Frequency (%)” value [13]?
**A.** Its value is 100.0%.

**Q.** What about the “Primary tumors Weight g (mean ± ES)” value [13] of the same compound?
**A.** Its value is 1.9 ± 0.6 g.

**Q.** What about the “inhibition in the frequency of lung metastases with respect to controls” value (experiments #7/8, NAC 2 g/kg p.o.) of the same compound?
**A.** Its value is 4.8 fold.

**Q.** What about the “survival of mice (effect in words)” value (experiments #7 and #8, NAC 2 g/kg p.o., DOX 10 mg/kg i.v. +24 h or +7 days) of the same compound?
**A.** The value was “enhanced remarkably the survival”.
